For 14 molecules, logP results are on record in the OPERA property sets (Mansouri et al. 2018).

For `O=C(OCCCNc1ccc(-c2ccncc2)cn1)c1ccccc1`, the logP (commonly a log measure of how a compound divides between an organic and an aqueous phase) is 4.06. `CCC(=O)OCCNc1ccc(-c2ccncc2)cn1` returned a lipophilicity (logP) of 2.47. Turning to `Cc1nc(NCCN)c(C#N)cc1-c1ccncc1`, the logP was 1.91. In the case of `CCC(CO)Nc1ncc(-c2ccncc2)cc1C#N` (centres undefined), the logP turned out to be 1.04. For `CC(=O)OCCNc1ccc(-c2ccncc2)cn1` the value was 2; for `COCCCNc1ncc(-c2ccncc2)cc1C#N`, 2.03. `N#Cc1cc(-c2ccncc2)cnc1NCCCCO` yielded a logP of 1.93. For `Cc1nc(N2CCNCC2)c(C#N)cc1-c1ccccc1` the value was 3.15; for `CC(O)COc1ncc(-c2ccncc2)cc1C#N` (centres undefined), 1.65; for `CC(=O)OCCNc1ccc(-c2ccncc2)c(C)n1`, 2.59. Next, `CCOc1ncc(-c2ccncc2)cc1C#N`: 2.59; `CC(=O)OCCOc1ccc(-c2ccncc2)cn1`: 1.92.

`CC(=O)OCCCOc1ccc(-c2ccncc2)cn1` yielded a lipophilicity (logP) of 2.48. As for `COc1nc(C)c(-c2ccncc2)cc1C#N`, the logP was 2.41.
